One assay deals with PP1-GADD34 phosphatase. The following applies: Boyce, et al. (2005) Science 307:935-939; cited from earlier work.
Assay [1] relates to myelin basic protein (MBP). Description: Hippocampal organotypic cultures (HOC), in vitro model of myelination, MBP Western blot. The following applies: 7 days. Type of assay: cell-based. On the procedure: HOCs, were prepared and maintained as described previously (Kunkler and Kraig (1997) J Cereb Blood Flow Metab. 17:26-43), and were maintained in vitro for 7 days before use. SAL at various concentrations was combined with 100 U/ml IFN-γ and added to the HOC cultures for 7 days. […] After 7 days of 100 U/ml IFN-γ exposure, the levels of MBP decreased approximately 80% in the HOCs (FIG. 29).
A general note: Immunoblotting shows a protein as a band on a membrane.

As to `O=C(/C=C/c1ccccc1)NC(NC(=S)Nc1cccc2cccnc12)C(Cl)(Cl)Cl` (stereo not drawn) [SAL, salubrinal], in the assay on PP1-GADD34 phosphatase, the PP1-GADD34 phosphatase activity result was “specifically inhibits the PP1-GADD34 phosphatase activity”. For the same molecule, in assay [1] (SAL at various concentrations combined with 100 U/ml IFN-γ), the “reduction of MBP expression elicited by IFN-γ exposure” value is “markedly attenuated”. In assay [1] (SAL treatment alone), the MBP expression entry is on record as “did not affect MBP expression”.

The values are drawn from patent US8415106B2, “Cell-based screen for agents useful for reducing neuronal demyelination or promoting neuronal remyelination” (Myelin Repair Foundation, Inc., priority 2005, dated 2013).
